Results: PubChem BioAssay AID1259407 (Chemical Carcinogenesis Research Information System (CCRIS), 2018)
Calls of active or inactive are those of the source. The rule behind the calls is not given here.

System: CCRIS mutagenicity, Ames/micronucleus/aberration tests
Assay: CCRIS mutagenicity studies
[1] = Test System: AMES SALMONELLA TYPHIMURIUM, Strain/Indicator: TA100, Metabolic Activation: NONE, Method: PREINCUBATION

## O=NN1CCC[C@H]1c1cccnc1
Test System: AMES SALMONELLA TYPHIMURIUM, Strain/Indicator: TA98, Metabolic Activation: HAMSTER, LIVER, S-9, AROCLOR 1254, Method: STANDARD PLATE
  mutagenic call: inactive; negative
Test System: AMES SALMONELLA TYPHIMURIUM, Strain/Indicator: TA98, Metabolic Activation: NONE, Method: STANDARD PLATE
  mutagenic call: inactive; negative
Test System: AMES SALMONELLA TYPHIMURIUM, Strain/Indicator: TA98, Metabolic Activation: RAT, LIVER, S-9, AROCLOR 1254, Method: STANDARD PLATE
  mutagenic call: inactive; negative
Test System: AMES SALMONELLA TYPHIMURIUM, Strain/Indicator: TA100, Metabolic Activation: HAMSTER, LIVER, S-9, AROCLOR 1254, Method: STANDARD PLATE
  mutagenic call: inactive; negative
[1]
  mutagenic call: active; positive
Test System: AMES SALMONELLA TYPHIMURIUM, Strain/Indicator: TA100, Metabolic Activation: NONE, Method: STANDARD PLATE
  mutagenic call: inactive; negative
Test System: AMES SALMONELLA TYPHIMURIUM, Strain/Indicator: TA100, Metabolic Activation: RABBIT, LUNG, CLARA CELLS, Method: PREINCUBATION
  mutagenic call: inactive; negative
Test System: AMES SALMONELLA TYPHIMURIUM, Strain/Indicator: TA100, Metabolic Activation: RABBIT, LUNG, MACROPHAGES, Method: PREINCUBATION
  mutagenic call: inactive; negative
Test System: AMES SALMONELLA TYPHIMURIUM, Strain/Indicator: TA100, Metabolic Activation: RABBIT, LUNG, S-9, Method: PREINCUBATION
  mutagenic call: active; positive
Test System: AMES SALMONELLA TYPHIMURIUM, Strain/Indicator: TA100, Metabolic Activation: RABBIT, LUNG, TYPE II CELLS, Method: PREINCUBATION
  mutagenic call: inactive; negative
Test System: AMES SALMONELLA TYPHIMURIUM, Strain/Indicator: TA100, Metabolic Activation: RAT LIVER S-9, AROCLOR 1254, Method: PREINCUBATION
  mutagenic call: inactive; negative
Test System: AMES SALMONELLA TYPHIMURIUM, Strain/Indicator: TA1530, Metabolic Activation: RABBIT, LUNG, CLARA CELLS, Method: PREINCUBATION
  mutagenic call: inactive; negative
Test System: AMES SALMONELLA TYPHIMURIUM, Strain/Indicator: TA1530, Metabolic Activation: RABBIT, LUNG, MACROPHAGES, Method: PREINCUBATION
  mutagenic call: inactive; negative
Test System: AMES SALMONELLA TYPHIMURIUM, Strain/Indicator: TA1530, Metabolic Activation: RABBIT, LUNG, S-9, Method: PREINCUBATION
  mutagenic call: active; positive
Test System: AMES SALMONELLA TYPHIMURIUM, Strain/Indicator: TA1530, Metabolic Activation: RABBIT, LUNG, TYPE II CELLS, Method: PREINCUBATION
  mutagenic call: inactive; negative
Test System: AMES SALMONELLA TYPHIMURIUM, Strain/Indicator: TA1535, Metabolic Activation: HAMSTER, LIVER, S-9, AROCLOR 1254, Method: STANDARD PLATE
  mutagenic call: active; positive
Test System: AMES SALMONELLA TYPHIMURIUM, Strain/Indicator: TA1535, Metabolic Activation: NONE, Method: STANDARD PLATE
  mutagenic call: inactive; negative
Test System: AMES SALMONELLA TYPHIMURIUM, Strain/Indicator: TA1535, Metabolic Activation: RAT, LIVER, S-9, AROCLOR 1254, Method: STANDARD PLATE
  mutagenic call: inactive; negative
Test System: AMES SALMONELLA TYPHIMURIUM, Strain/Indicator: TA1537, Metabolic Activation: HAMSTER, LIVER, S-9, AROCLOR 1254, Method: STANDARD PLATE
  mutagenic call: inactive; negative
Test System: AMES SALMONELLA TYPHIMURIUM, Strain/Indicator: TA1537, Metabolic Activation: NONE, Method: STANDARD PLATE
  mutagenic call: inactive; negative
Test System: AMES SALMONELLA TYPHIMURIUM, Strain/Indicator: TA1537, Metabolic Activation: RAT, LIVER, S-9, AROCLOR 1254, Method: STANDARD PLATE
  mutagenic call: inactive; negative
Test System: AMES SALMONELLA TYPHIMURIUM, Strain/Indicator: TA1538, Metabolic Activation: HAMSTER, LIVER, S-9, AROCLOR 1254, Method: STANDARD PLATE
  mutagenic call: inactive; negative
Test System: AMES SALMONELLA TYPHIMURIUM, Strain/Indicator: TA1538, Metabolic Activation: NONE, Method: STANDARD PLATE
  mutagenic call: inactive; negative
Test System: AMES SALMONELLA TYPHIMURIUM, Strain/Indicator: TA1538, Metabolic Activation: RAT, LIVER, S-9, AROCLOR 1254, Method: STANDARD PLATE
  mutagenic call: inactive; negative
Test System: AMES SALMONELLA TYPHIMURIUM, Strain/Indicator: TA7004, Metabolic Activation: HAMSTER LIVER S-9, AROCLOR 1254, Method: PREINCUBATION
  mutagenic call: inactive; negative
Test System: AMES SALMONELLA TYPHIMURIUM, Strain/Indicator: TA7004, Metabolic Activation: NONE, Method: PREINCUBATION
  mutagenic call: active; positive
Test System: AMES SALMONELLA TYPHIMURIUM, Strain/Indicator: TA7004, Metabolic Activation: RAT LIVER S-9, AROCLOR 1254, Method: PREINCUBATION
  mutagenic call: inactive; negative
Test System: CHINESE HAMSTER V-79, Strain/Indicator: V-79 (HPRT)/6-THIOGUANINE, Metabolic Activation: RAT, HEPATOCYTES
  mutagenic call: inactive; negative
Test System: CHINESE HAMSTER V-79, Strain/Indicator: V-79 (HPRT)/6-THIOGUANINE, Metabolic Activation: RAT, LIVER, S-9, AROCLOR 1254
  mutagenic call: inactive; negative
Test System: UDS RABBIT LUNG CLARA CELLS, Strain/Indicator: THY INCORP, Metabolic Activation: NONE, Method: LIQUID SCINTILLATION COUNTING
  mutagenic call: inactive; negative
Test System: UDS RABBIT LUNG MACROPHAGES, Strain/Indicator: THY INCORP, Metabolic Activation: NONE, Method: LIQUID SCINTILLATION COUNTING
  mutagenic call: inactive; negative
Test System: UDS RABBIT LUNG TYPE II CELLS, Strain/Indicator: THY INCORP, Metabolic Activation: NONE, Method: LIQUID SCINTILLATION COUNTING
  mutagenic call: inactive; negative
Test System: UDS RODENT HEPATOCYTES, Strain/Indicator: THY INCORP (NON-S-PHASE), Method: AUTORADIOGRAPHY
  mutagenic call: active; positive

## O=C1c2ccccc2C(=O)c2cc(CO)ccc21
Test System: AMES SALMONELLA TYPHIMURIUM, Strain/Indicator: TA98, Metabolic Activation: NONE, Method: PREINCUBATION
  mutagenic call: inactive; negative
Test System: AMES SALMONELLA TYPHIMURIUM, Strain/Indicator: TA98, Metabolic Activation: RAT, LIVER, S-9, PCB, Method: PREINCUBATION
  mutagenic call: inactive; negative
[1]
  mutagenic call: inactive; negative
Test System: AMES SALMONELLA TYPHIMURIUM, Strain/Indicator: TA100, Metabolic Activation: RAT, LIVER, S-9, PCB, Method: PREINCUBATION
  mutagenic call: inactive; negative
Test System: UDS RODENT HEPATOCYTES, Strain/Indicator: THY INCORP (NON-S-PHASE), Metabolic Activation: NONE, Method: AUTORADIOGRAPHY
  mutagenic call: inactive; negative
Test System: UDS RODENT HEPATOCYTES, Strain/Indicator: THY INCORP (NON-S-PHASE), Metabolic Activation: PHENOBARBITAL, Method: AUTORADIOGRAPHY
  mutagenic call: active; positive
